Measured values taken from PubChem BioAssay (NCI).
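Cultured in 96-well plates, cells were exposed to test compound for 48 hours across five concentrations. At the GI50, growth is halved. The concentration for full growth arrest is given as TGI.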

Experiments:
Experiment in all cases: NCI tumour cell line growth inhibition, 48 h
786-0 renal = test system: 786-0 renal
IGROV1 ovarian = test system: IGROV1 ovarian
KM12 colon = test system: KM12 colon
LOX IMVI melanoma = test system: LOX IMVI melanoma
SNB-75 CNS = test system: SNB-75 CNS
TK-10 renal = test system: TK-10 renal
U251 CNS = test system: U251 CNS
UACC-257 melanoma = test system: UACC-257 melanoma
MDA-MB-231 breast = test system: MDA-MB-231 breast
NCI/ADR-RES ovarian = test system: NCI/ADR-RES ovarian

Row | Structure (SMILES) | TGI (786-0 renal) [µM] | TGI (IGROV1 ovarian) [µM] | TGI (KM12 colon) [µM] | TGI (LOX IMVI melanoma) [µM] | TGI (SNB-75 CNS) [µM] | TGI (TK-10 renal) [µM] | TGI (U251 CNS) [µM] | TGI (UACC-257 melanoma) [µM] | TGI (MDA-MB-231 breast) [µM] | TGI (NCI/ADR-RES ovarian) [µM] | GI50 (786-0 renal) [µM] | GI50 (IGROV1 ovarian) [µM] | GI50 (KM12 colon) [nM] | GI50 (MDA-MB-231 breast) [µM] | GI50 (NCI/ADR-RES ovarian) [µM] | GI50 (SNB-75 CNS) [µM] | GI50 (TK-10 renal) [µM] | GI50 (U251 CNS) [nM] | GI50 (UACC-257 melanoma) [µM] | GI50 (LOX IMVI melanoma) [nM]
1 | CC1CC(=O)Nc2ccccc2N1C(=O)CN1CCC(CCCCN(C)C)CC1 (configuration not stated) | > 100 | > 100 | > 100 | > 100 | > 100 | > 100 | > 100 | > 100 |  |  |  |  |  |  |  |  |  |  |  | 
2 | CC1SC2=NC3=C(c4ccccc4C3=O)C(c3ccc(Cl)cc3)N2C1=O (configuration not stated) | > 100 | > 100 | > 100 |  | > 100 | > 100 | > 100 | > 100 |  |  |  |  |  |  |  |  |  |  |  | 
3 | CC1=NOC(=O)/C1=C/c1cccc2ccccc12 | > 100 | > 100 | > 100 | > 100 | > 100 | > 100 | > 100 | > 100 |  |  |  |  |  |  |  |  |  |  |  | 
4 | CCN(CC)CCOc1ccccc1/C=C/c1noc2ccccc12 | 26.7 | 22.3 | 31.5 |  | 22.2 | 28.7 |  | 15.3 | 25.7 | 38.8 |  |  |  |  |  |  |  |  |  | 
5 | O=C1CCC2CC(C(=O)c3ccccc3)CCC2CN1 (configuration not stated) (tested in a mixture with another compound) | > 100 | > 100 | > 100 |  | > 100 |  | > 100 | > 100 |  |  |  |  |  |  |  |  |  |  |  | 
6 | CCCCCCCCCCCCCC1=NCCN1CCO | 11.2 | > 100 | 9 |  | 8.16 | 12.7 | 4.95 | 36.9 | 8.28 | 21.2 | 5.17 | 4.46 | 3000 | 3.04 | 5 | 2.3 | 4.75 | 2100 | 12.6 | 
7 | Cc1cccc2c1N(C(=O)/C=C\C(=O)O)C(c1c(C)[nH]c3ccccc13)C2 (configuration not stated) | > 100 | > 10 | > 100 |  | > 10 | > 100 | > 10 | > 100 |  |  |  |  |  |  |  |  |  |  |  | 
8 | Cc1cc2c(cc1C)[n+](=O)c(C(=O)C/C(=N/OCCCc1ccccc1)C(=O)Nc1cc(Cl)ccc1Cl)c(C)n2[O-] | > 100 | > 100 | > 100 | > 100 | > 100 | > 100 | > 100 | > 100 |  |  |  |  |  |  |  |  |  |  |  | 
9 | COC(=O)C(C(=O)C(=O)Nc1nc(=S)[nH][nH]1)c1csc(-n2nc(-c3ccccc3)cc2-c2ccccc2)n1 (configuration not stated) | > 100 | > 100 | > 100 | > 100 | 78.5 | > 100 | > 100 | > 100 |  |  |  |  |  |  |  |  |  |  |  | 
10 | NC(N)=N/N=C/c1c(-c2cc(Cl)sc2Cl)nc2sccn12 | 1.79 | 8.08 | 2.75 |  |  | 2.78 | 1.56 | 17.6 | 1.75 | 15.4 | 0.924 | 1.14 | 1040 | 0.751 | 7.71 |  | 1.29 | 799 | 8.6 | 
11 | CC(=O)Nc1cc(N(CCOS(C)(=O)=O)CCOS(C)(=O)=O)ccc1N=O | > 100 | > 100 | > 100 |  | > 100 | > 100 | > 100 | > 100 |  |  |  |  |  |  |  |  |  |  |  | 
12 | O=C(O)C[C@H]1CCCCC12CCOC2=O (some centres not stated) | > 100 | > 100 | > 100 | > 100 | > 100 | > 100 | > 100 | > 100 |  |  |  |  |  |  |  |  |  |  |  | 
13 | Cc1ccc(NC(=O)C(=O)C(C#N)c2nc(-c3ccc(-c4ccccc4)cc3)cs2)c(C)c1 (configuration not stated) | > 100 | > 100 |  | > 100 | > 100 | > 100 | > 100 | > 100 |  |  |  |  |  |  |  |  |  |  |  | 
14 | O=C(c1ccccc1)[C@H]1Nc2ccc(Cl)cc2C2c3ccccc3CC21 (some centres not stated) | > 100 | > 100 | > 100 | > 100 | > 100 | > 100 | > 100 | 85.9 |  |  |  |  |  |  |  |  |  |  |  | 
15 | O=C(c1ccccc1)N1C2CCC1C(C(F)(F)F)=C2C(F)(F)F | > 100 | > 100 | > 100 | > 100 | > 100 | > 100 | > 100 | > 100 |  |  |  |  |  |  |  |  |  |  |  | 
16 | CNCc1cc(OC)ccc1-c1ccc(OC)c(OC)c1OC | > 100 | > 100 | > 100 | > 100 | > 96.7 | > 100 | > 100 | > 100 |  |  |  |  |  |  |  |  |  |  |  | 
17 | COC(=O)C(CC(C)C)NC(=O)NC12CC3CC(CC(F)(C3)C1)C2 (configuration not stated) | > 100 | > 100 | > 100 | > 100 | > 100 | > 100 | > 100 | > 100 |  |  |  |  |  |  |  |  |  |  |  | 
18 | O=C1NC(=O)C(=C/C=C/c2ccccc2)C(=O)N1 | 11 |  | 3.26 | 3.3 | 19.4 | 18.3 | 10.3 | 7.34 | 16 | 16.7 | 3.11 |  | 1740 | 3.73 | 3.78 | 6 | 5.62 | 2500 | 2.24 | 1550
19 | Cc1ccc(-c2cc3c(SCC(=O)Nc4cc(C(F)(F)F)ccc4Cl)nccn3n2)cc1 | 87.2 | > 100 | > 100 | > 100 | > 100 | > 100 | > 100 |  | > 100 | > 100 | 10.1 | > 100 | > 100000 | 94.5 | > 100 | 23.5 | > 100 | 3400 |  | > 100000
20 | CC(/C(=N\Nc1ccccc1)c1ccc(O)cc1)C1C(=O)Oc2ccccc21 (configuration not stated) | > 100 | > 100 | > 100 | > 100 | > 100 | > 100 | > 100 | > 100 |  |  |  |  |  |  |  |  |  |  |  | 
21 | COC(=O)/C(=N\Nc1nc(=S)[nH]n1N)C(C#N)c1ccccc1 (configuration not stated) | > 100 | > 100 | > 100 | > 100 | > 100 | > 100 | > 100 | > 100 |  |  |  |  |  |  |  |  |  |  |  | 
22 | COC(=O)C(Cc1cc(OC)c(OC)c(OC)c1)c1ccc(OC)cc1 (configuration not stated) | > 100 | > 100 | > 100 | > 100 |  | > 100 | > 100 | > 100 |  |  |  |  |  |  |  |  |  |  |  | 
